The nature of the series: in vivo rat pharmacokinetic (PK) studies, plasma clearance. The settings on record: for clearance: plasma, read-out: Rat PK Clp.

Structures are written as SMILES.

For `O=C(NCc1cc(-c2ccc(C(F)(F)F)nc2)ncn1)[C@@H]1C[C@@H](F)CN1S(=O)(=O)c1ccc(F)cc1` [(2S,4R)-4-fluoro-1-(4-fluorophenyl)sulfonyl-N-[[6-[6-(trifluoromethyl)-3-pyridyl]pyrimidin-4-yl]methyl]pyrrolidine-2-carboxamide], the “Rat PK Clp” value amounted to 15 mL/min/kg. Besides, the “stability in in vivo rat PK studies (clearance from the blood), in words” value (compared with related compounds) is on record as “highest stability (slowest clearance)”. In the case of `O=C(NCc1cc(-c2ccc(C(F)(F)F)nc2)nc(-c2ccc(C(F)(F)F)nc2)c1)[C@@H]1C[C@@H](F)CN1S(=O)(=O)c1ccc(F)cc1` [(2S,4R)-N-[[2,6-bis[6-(trifluoromethyl)-3-pyridyl]-4-pyridyl]methyl]-4-fluoro-1-(4-fluorophenyl)sulfonyl-pyrrolidine-2-carboxamide], the clearance was 9.1 mL/min/kg. Take `O=C(NCc1cc(F)cc(-c2cnc(C(F)F)cn2)c1)[C@@H]1C[C@@H](F)CN1S(=O)(=O)c1ccc(F)cc1` [(2S,4R)-N-[[3-[5-(difluoromethyl)pyrazin-2-yl]-5-fluoro-phenyl]methyl] 4-fluoro-1-(4-fluorophenyl)sulfonyl-pyrrolidine-2-carboxamide]: the clearance was 9.9 mL/min/kg. Consider `O=C(NCc1cc(-c2ccc(OC(F)F)cc2)ncn1)[C@@H]1C[C@@H](F)CN1S(=O)(=O)c1ccc(F)cc1` [(2S,4R)-N-[[6-[4-(difluoromethoxy)phenyl]pyrimidin-4-yl]methyl]-4-fluoro-1-(4-fluorophenyl)sulfonyl-pyrrolidine-2-carboxamide], for which the clearance stood at 13.2 mL/min/kg.

The values are drawn from US11236046B2, “Substituted heterocyclic sulfonamide compounds useful as TRPA1 modulators” (Genentech, Inc., priority 2013, dated 2022).
